The text below walks through data of publication PMC3274548, “Toward New Therapeutics for Skin and Soft Tissue Infections: Propargyl-Linked Antifolates Are Potent Inhibitors of MRSA and Streptococcus pyogenes” (PLoS ONE, 2012).

One assay has as its system MCF-10 cells. Description: Mammalian cell toxicity (Alamar Blue). The class given is cell-based. The following applies: Homo sapiens, MCF10; cytotoxicity, 4 h incubation; read-out: IC50 MCF-10. As to the method:
Adherent cell lines were maintained in Eagle's Minimal Essential Media (Sigma-Aldrich, St. Louis, MO, USA) with 2 mM glutamine and Earle's Balanced Salt Solution (HyClone, Logan, UT, USA) adjusted to contain 1.5 g/L sodium bicarbonate, 0.1 mM non-essential amino acids, 1 mM sodium pyruvate and 10% fetal calf serum. Fetal calf serum used in these assays was lot matched throughout. […] Toxicity assays were conducted between passages 10–20. Target compound toxicity was measured by incubating the test compound with the cells for 4 h, washing the cells and finally treating the cells with Alamar Blue. After 12–24 h, the fluorescence of the reduced dye was measured. Fluorescence intensity as a function of test compound concentration was fit to the Fermi equation, using non-linear least squares regression analysis, to estimate IC50 values.
Background: Resazurin is reduced to fluorescent resorufin, in cell work by metabolically active cells.

A further assay relates to VISA Mu50. Description: MIC against clinical isolates of MRSA. The format is cell-based. Conditions: Staphylococcus aureus, read-out: MIC VISA Mu50.
For another assay, the system named is USA100 HA-MRSA. Put plainly: MIC against clinical isolates of MRSA. The class given is cell-based. Conditions: Staphylococcus aureus, clinical isolate, read-out: MIC USA100 HA-MRSA.
For assay [1], the system named is TMP-SMZ-resistant MRSA strain. Description: MIC against clinical isolates of MRSA. The class given is cell-based. Conditions: Staphylococcus aureus, clinical isolate, Table 4, read-out: MIC TMP-SMZ^R.
The next assay concerns USA300 CA-MRSA. Description: MIC against clinical isolates of MRSA. The format is cell-based, Staphylococcus aureus. The following applies: Staphylococcus aureus, clinical isolate, read-out: MIC USA300 CA-MRSA.
For the next assay, the target named is S. pyogenes DHFR (Streptococcus pyogenes, UniProt Q9A091). Description: biochemical. The format is biochemical. As to the method:
(§1) S. aureus DHFR was cloned, expressed and purified as previously described. Briefly, the DHFR gene was inserted into vector pET41 with a His8 tag for purification. The protein was expressed in E. coli BL21 (DE3) cells. […] The protein was concentrated to ∼5 mg/mL. S. pyogenes DHFR was cloned using PCR from genomic DNA and inserted in vector pET-41.
(§2) Enzyme inhibition assays were performed by monitoring the rate of NADPH oxidation by the DHFR enzyme at an absorbance of 340 nm over five minutes. Assays were performed in the presence of saturating concentrations of NADPH (100 µM) and initiated with dihydrofolate (1 mM). All assays were completed at 25°C in a buffer containing 20 mM TES pH 7.0, 50 mM KCl, 10 mM 2-mercaptoethanol, 0.5 mM EDTA and 1 mg/mL BSA. Inhibition was measured at least three times with inhibitor concentrations near the IC50 value and the average IC50 value is reported with a standard deviation.

In another assay the target is T1, S. aureus DHFR (Staphylococcus aureus, UniProt P0A017).
T1 construct: the DHFR gene was inserted into vector pET41 with a His8 tag for purification; His8; made in house; host or cells: E. coli BL21 (DE3)
Description: biochemical. The class given is biochemical. As to the method:
as §1, §2

Assay [2] concerns MRSA strain containing the F98Y mutation. Description: MIC against MRSA strain containing the F98Y mutation. The format is cell-based. The following applies: Staphylococcus aureus, read-out: MIC against MRSA strain containing the F98Y mutation.
The subject of another assay is hVISA Mu3. Put plainly: MIC against clinical isolates of MRSA. Conditions: Staphylococcus aureus; heteroresistant vancomycin intermediate S. aureus; read-out: MIC hVISA Mu3. The format is cell-based.
The next assay has as its system HepG2 cells. Description: Mammalian cell toxicity (Alamar Blue). The format is cell-based. The following applies: Homo sapiens, cytotoxicity, 4 h incubation. The method, then: Fetal calf serum used in these assays was lot matched throughout. All cultures were maintained under a humidified 5% CO2 atmosphere at 37°C, had media refreshed twice weekly and were subcultured by trypsinization and resuspension at a ratio of 1∶5 each week. Toxicity assays were conducted between passages 10–20. Target compound toxicity was measured by incubating the test compound with the cells for 4 h, washing the cells and finally treating the cells with Alamar Blue. After 12–24 h, the fluorescence of the reduced dye was measured. Fluorescence intensity as a function of test compound concentration was fit to the Fermi equation, using non-linear least squares regression analysis, to estimate IC50 values.

For assay [3], the system named is Staphylococcus aureus subsp. aureus ATCC 44300. Put plainly: MIC and MBC determination (microdilution, plating on Isosensitest agar). The class given is cell-based. The following applies: ATCC44300. The source says:
MBC was defined as the lowest concentration of inhibitor preventing colony growth on agar plates.

The next assay concerns Streptococcus pyogenes. Description: MIC, broth microdilution with Alamar Blue. The format is cell-based. The following applies: for MIC: Streptococcus pyogenes. As to the method:
(§3) Stock solutions of standard antibiotics and test compounds were made at 50 mM in DMSO. […] For susceptibility testing, 10 µL of glycerol stock was suspended in a 10 mL shake flask culture of chemically defined Isosensitest broth (Oxoid) supplemented with 2% w/v glucose. A sample of the shake flask culture was diluted to 1×10^6 cells/mL in media and added to 96-well test plates (100 µL per well) containing test compounds dispensed in DMSO (2 µL) using serial two-fold dilutions. After an incubation period (30°C) determined from the strain specific doubling time, a 0.03% w/v aqueous solution of resazurin (10 µL) was added and the plates were allowed to incubate; each well was then scored for dye reduction.

The target in a further assay is T2, Human DHFR (Homo sapiens, UniProt P00374).
T2 sequence (P00374 1-187): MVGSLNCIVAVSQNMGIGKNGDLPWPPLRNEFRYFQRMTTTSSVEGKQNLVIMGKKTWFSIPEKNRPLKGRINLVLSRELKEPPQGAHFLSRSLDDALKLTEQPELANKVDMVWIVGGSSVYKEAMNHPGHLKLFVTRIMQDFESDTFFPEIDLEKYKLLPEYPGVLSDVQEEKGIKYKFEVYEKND
Put plainly: DHFR enzyme inhibition assay (NADPH oxidation, 340 nm). The class given is biochemical. Conditions: human DHFR; average of at least three measurements; read-out: IC50 (nM) Human. As to the method: as §2

A further assay relates to MRSA (S.aureus 13709). Description: MIC, broth microdilution with Alamar Blue. The class given is cell-based, Staphylococcus aureus. Conditions: for MIC: Staphylococcus aureus, MRSA. The method, then: as §3
A further assay deals with HA-MRSA. Put plainly: MIC against clinical isolates of MRSA. The format is cell-based. Conditions: Staphylococcus aureus, clinical isolate, read-out: MIC HA-MRSA.
Another assay concerns MRSA strain ATCC 43300. The following applies: selection at ten times the MIC value.
The subject of assay [4] is MRSA strain containing the F98Y mutation. Conditions: cited from earlier work.
Setting [5] is: IC50 (MCF10)/MIC (pathogen), both values in µM.
Setting [6] is: 10% FCS, read-out: MIC S. pyogenes +FCS.
Setting [7] is: 10% FCS, value in parentheses, read-out: MIC S. pyogenes +FCS.
Setting [8] is: value in parentheses, read-out: MIC S. pyogenes.
[9] abbreviates: 10% fetal calf serum, value in parentheses, read-out: MIC MRSA +FCS.
Where [10] appears, read: value in parentheses, read-out: MIC MRSA.

In general, IC50 refers to the midpoint of a concentration-inhibition curve. A word on the MIC: it is the smallest concentration in the dilution series that meets the test's criterion for growth inhibition. As usually defined, the MBC is the lowest tested concentration that kills the bacteria rather than only halting them.

Each structure is given as a SMILES string. ≈ marks a conversion by molar mass, not a printed value. Like-named read-outs stand apart in the source and are kept apart here.

T1 sequence (P0A017 whole entry): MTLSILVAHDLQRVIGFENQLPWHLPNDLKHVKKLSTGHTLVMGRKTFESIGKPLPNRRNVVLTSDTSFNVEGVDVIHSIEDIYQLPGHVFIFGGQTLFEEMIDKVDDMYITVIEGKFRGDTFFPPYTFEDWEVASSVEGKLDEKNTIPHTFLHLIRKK
Sequence of S. pyogenes DHFR (Q9A091 entry or part of it): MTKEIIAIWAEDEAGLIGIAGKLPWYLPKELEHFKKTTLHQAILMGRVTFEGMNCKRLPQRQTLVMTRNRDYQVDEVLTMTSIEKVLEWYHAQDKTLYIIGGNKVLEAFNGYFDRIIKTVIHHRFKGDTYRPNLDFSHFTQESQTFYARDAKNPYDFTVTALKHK
Description for MRSA strain ATCC 43300: Selective plates were grown for 30 hours at 37°C. […] Direct colony PCR was used to isolate and amplify the dfrA gene from resistant strains using methods described in [34]. All PCR products were screened for point mutations in DHFR by high quality DNA sequencing (Genewiz). Primers used to detect the dfrA gene contained restriction enzyme cut sites for NdeI and XhoI in order to ligate PCR products into the pET41 vector for further validation with DNA sequencing with the T7 promoter sequencing primer. Mutation frequencies were calculated based on the sequencing information provided for each mutant colony.

Turning to `COc1cc(-c2ccncc2)cc(C(C)C#Cc2c(C)nc(N)nc2N)c1` (stereo not shown) [Compound 24], the IC50 in the assay with MCF-10 cells was found to be 220000 nM; on S. aureus DHFR (S. aureus DHFR, average of at least three measurements, read-out: IC50 (nM) Sa) it was 26 ± 2 nM; in the assay with HepG2 cells it was 233000 nM; on Human DHFR, 1500 ± 8 nM. The MIC with VISA Mu50 amounted to 0.18 µg/mL (≈ 0.501 µM); with USA100 HA-MRSA (USA100) it was 0.045 µg/mL (≈ 0.125 µM); in the assay on USA100 HA-MRSA (first USA100 column) it was 2.9 µg/mL (≈ 8.07 µM); with USA100 HA-MRSA (third USA100 column), 0.09 µg/mL (≈ 0.25 µM); in assay [1], 0.045 µg/mL (≈ 0.125 µM); with USA300 CA-MRSA (USA300), 0.09 µg/mL (≈ 0.25 µM). For the same compound, the minimum inhibitory concentration (MIC) is 0.045 µg/mL (≈ 0.125 µM) in the assay with USA300 CA-MRSA; 2.5 µg/mL (≈ 6.96 µM) in assay [2]; 0.045 µg/mL (≈ 0.125 µM) in the assay on hVISA Mu3; 0.078 µg/mL (≈ 0.217 µM) in assay [3]; 0.09 µg/mL with Streptococcus pyogenes (setting [6]); 0.25 µM with Streptococcus pyogenes (setting [7]). In addition, the MIC with Streptococcus pyogenes (setting [8]) was 0.125 µM; in the assay on Streptococcus pyogenes (read-out: MIC S. pyogenes), 0.04 µg/mL; in the assay on MRSA (S.aureus 13709) (10% fetal calf serum, read-out: MIC MRSA +FCS), 0.09 µg/mL; in the assay with MRSA (S.aureus 13709) (setting [9]) it was 0.25 µM; in the assay on MRSA (S.aureus 13709) (setting [10]), 0.125 µM; in the assay with MRSA (S.aureus 13709) (read-out: MIC MRSA), 0.04 µg/mL. Also, the MIC in the assay on HA-MRSA amounted to 0.09 µg/mL (≈ 0.25 µM). Moreover, the “Selectivity (h/Sp)” value on S. pyogenes DHFR (IC50 (human)/IC50 (pathogen)) is on record as 9.4. The “Selectivity (h/Sa)” value on S. aureus DHFR (IC50 (human)/IC50 (pathogen)) stood at 58. In addition, the minimal bactericidal concentration (MBC) in assay [3] was determined as 0.078 µg/mL (≈ 0.217 µM). In addition, the “Selectivity S. pyogenes” value in the assay with Streptococcus pyogenes (setting [5]) is given as 1,760. The “Selectivity MRSA” value with MRSA (S.aureus 13709) (setting [5]) is listed as 1,760. Moreover, the resistance frequency in the assay with MRSA strain ATCC 43300 is on record as 3.9×10^−10.

Regarding `CCc1nc(N)nc(N)c1C#CC(C)c1cc(OC)cc(-c2ccncc2)c1` (stereo not shown) [Compound 25], the IC50 came out at 85000 nM in the assay on MCF-10 cells; 180 ± 19 nM against S. pyogenes DHFR; 19 ± 1 nM against S. aureus DHFR; 171000 nM in the assay with HepG2 cells; 1300 ± 11 nM on Human DHFR. For the same compound, the minimal inhibitory concentration (MIC) in the assay on VISA Mu50 came to 0.09 µg/mL (≈ 0.241 µM); in the assay with USA100 HA-MRSA (USA100) it was 0.09 µg/mL (≈ 0.241 µM); with USA100 HA-MRSA (first USA100 column), 2.9 µg/mL (≈ 7.77 µM); in the assay on USA100 HA-MRSA (third USA100 column), 0.09 µg/mL (≈ 0.241 µM); in [1] it was 0.09 µg/mL (≈ 0.241 µM); in the assay on USA300 CA-MRSA (USA300) it was 0.09 µg/mL (≈ 0.241 µM). Also, the minimum inhibitory concentration (MIC) worked out at 0.045 µg/mL (≈ 0.12 µM) with USA300 CA-MRSA; 0.09 µg/mL (≈ 0.241 µM) with hVISA Mu3; 0.078 µg/mL (≈ 0.209 µM) in assay [3]; 0.032 µM in the assay on Streptococcus pyogenes (setting [8]); 0.012 µg/mL in the assay with Streptococcus pyogenes (read-out: MIC S. pyogenes); 0.5 µM in the assay with MRSA (S.aureus 13709) (setting [10]). Also, the MIC in the assay with MRSA (S.aureus 13709) (read-out: MIC MRSA) turned out to be 0.09 µg/mL; in the assay with HA-MRSA, 0.02 µg/mL (≈ 0.0536 µM). The compound also gave a minimal bactericidal concentration (MBC) in assay [3] of 0.078 µg/mL (≈ 0.209 µM).

Consider `COc1cc(Cc2cnc(N)nc2N)cc(OC)c1OC` [TMP, trimethoprim, reference compound], for which the MIC was found to be 0.58 µg/mL with Streptococcus pyogenes (setting [6]); 2 µM with Streptococcus pyogenes (setting [7]); 2 µM in the assay with Streptococcus pyogenes (setting [8]); 0.58 µg/mL with Streptococcus pyogenes (read-out: MIC S. pyogenes); 0.5 µM in the assay with MRSA (S.aureus 13709) (setting [9]); 0.5 µM in the assay with MRSA (S.aureus 13709) (setting [10]). Moreover, in assay [4], the “MIC against the F98Y strain” value was 16 µg/mL (≈ 55.1 µM). In addition, in the assay on MRSA (S.aureus 13709), the “MIC MRSA” value came to 0.14 µg/mL (≈ 0.482 µM). Moreover, in the assay with MRSA (S.aureus 13709) (10% fetal calf serum), the “MIC MRSA +FCS” value is 0.14 µg/mL (≈ 0.482 µM).
